Test results as given in ChEMBL document CHEMBL1201862, “PubChem BioAssay data set” (2004).
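Cells were grown in 96-well plates and exposed to each compound for 48 hours at five concentrations; endpoints were interpolated linearly between bracketing concentrations, or set to the highest concentration if not reached. GI50 is the concentration that inhibits growth by half.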 Calls of active or inactive are those of the source. Cut-off read from the data, not from the text of the source: active = GI50 up to about 1.1 µM and inactive = higher.

Columns and labels:
Assay in all cases: inhibition of tumour cell growth, NCI panel, 48 h
A498 = tested on: A498
A549 = tested on: A549
CAKI-1 = tested on: CAKI-1
EKVX = tested on: EKVX
HCT-15 = tested on: HCT-15
IGROV-1 = tested on: IGROV-1
K562 = tested on: K562
KM12 = tested on: KM12
M19-MEL = tested on: M19-MEL
OVCAR-4 = tested on: OVCAR-4
RXF 393 = tested on: RXF 393
SK-MEL-2 = tested on: SK-MEL-2
SK-MEL-5 = tested on: SK-MEL-5
SK-OV-3 = tested on: SK-OV-3
SNB-75 = tested on: SNB-75
TK-10 = tested on: TK-10

SMILES | GI50 (A498) | GI50 (A549) | GI50 (CAKI-1) | GI50 (EKVX) | GI50 (HCT-15) [µM] | GI50 (IGROV-1) | GI50 (K562) | GI50 (KM12) | GI50 (M19-MEL) | GI50 (OVCAR-4) | GI50 (RXF 393) | GI50 (SK-MEL-2) | GI50 (SK-MEL-5) | GI50 (SK-OV-3) | GI50 (SNB-75) | GI50 (TK-10)
CC1CCC(C(C)C)C(O[C@@H]2OC(=O)C[C@@H]2Sc2ccccc2)C1 (some centres not stated) | 28.6 µM (inactive) | 24.9 µM (inactive) | 23.3 µM (inactive) | 34 µM (inactive) | 19.5 | 40.2 µM (inactive) | 19.1 µM (inactive) | 20.3 µM (inactive) | 24 µM (inactive) | 15.9 µM (inactive) | 13.4 µM (inactive) | 17.5 µM (inactive) | 16.2 µM (inactive) | 49.8 µM (inactive) | 33.3 µM (inactive) | 53.3 µM (inactive)
COC(=O)C1CCC2(CC1)NC(=O)NC2=O (configuration not stated) | > 100 µM (inactive) | > 100 µM (inactive) | > 100 µM (inactive) | > 100 µM (inactive) | – | > 100 µM (inactive) | > 100 µM (inactive) | > 100 µM (inactive) | > 100 µM (inactive) | > 100 µM (inactive) | > 100 µM (inactive) | > 100 µM (inactive) | > 100 µM (inactive) | > 100 µM (inactive) | > 100 µM (inactive) | > 100 µM (inactive)
N#Cc1cnsc1 | > 100 µM (inactive) | > 100 µM (inactive) | > 100 µM (inactive) | > 100 µM (inactive) | > 100 | > 100 µM (inactive) | > 100 µM (inactive) | > 100 µM (inactive) | > 100 µM (inactive) | > 100 µM (inactive) | > 100 µM (inactive) | > 100 µM (inactive) | > 100 µM (inactive) | > 100 µM (inactive) | > 100 µM (inactive) | > 100 µM (inactive)
CC(C)(C)N/N=C(\Cc1occc(=O)c1O)C(=O)Nc1ccc([N+](=O)[O-])cc1[N+](=O)[O-] | > 100 µM (inactive) | > 100 µM (inactive) | > 100 µM (inactive) | 66.5 µM (inactive) | > 100 | > 100 µM (inactive) | > 100 µM (inactive) | > 100 µM (inactive) | > 100 µM (inactive) | > 100 µM (inactive) | > 100 µM (inactive) | > 100 µM (inactive) | > 100 µM (inactive) | > 100 µM (inactive) | > 100 µM (inactive) | > 100 µM (inactive)
N#CNC(=N)NC(=O)/C=C/C=C/c1ccc(Cl)cc1 | > 100 µM (inactive) | > 100 µM (inactive) | > 100 µM (inactive) | – | > 100 | > 100 µM (inactive) | > 100 µM (inactive) | > 100 µM (inactive) | > 100 µM (inactive) | 57.5 µM (inactive) | 41.6 µM (inactive) | > 100 µM (inactive) | 33.3 µM (inactive) | > 100 µM (inactive) | 24.2 µM (inactive) | 94.2 µM (inactive)
COC(=O)C(C(=O)C(=O)Nc1c(Cl)cc([N+](=O)[O-])cc1Cl)c1csc(-n2nc(C3=CCCCC3)cc2-c2ccccc2)n1 (configuration not stated) | 32.9 µM (inactive) | 64.7 µM (inactive) | 46.9 µM (inactive) | 8.47 µM (inactive) | 36.2 | – | 48.5 µM (inactive) | 45 µM (inactive) | 52.7 µM (inactive) | > 100 µM (inactive) | 63.7 µM (inactive) | > 100 µM (inactive) | – | 34.3 µM (inactive) | 30.7 µM (inactive) | 64.9 µM (inactive)
CC(=O)OCC1OC(n2cnc3c(I)nc(I)nc32)C(OC(C)=O)C1OC(C)=O (configuration not stated) | 22.2 µM (inactive) | 17.7 µM (inactive) | 2.02 µM (inactive) | 18.5 µM (inactive) | 4.58 | 6.35 µM (inactive) | 3.69 µM (inactive) | 4.48 µM (inactive) | 3.66 µM (inactive) | 4.71 µM (inactive) | 17.3 µM (inactive) | 17.1 µM (inactive) | 13.3 µM (inactive) | – | 15.1 µM (inactive) | 19.3 µM (inactive)
